The subject of data set [1] is ET1 (MphR(A)-VP16) / PETR promoters. Put plainly: SEAP reporter assay, CHO lines stably expressing ET1 (CHO-ET11, CHO-ET12) transiently transfected with PETR-SEAP plasmids. Type of data set: cell-based. To be noted: for SEAP production [%]: CHO-ET11 transiently transfected with pWW38, 48 h, antibiotic 2 μg/ml, no macrolide = 100. Here is the method:
(§1) Chinese hamster ovary cells (CHO-K1, ATCC: CCL 61), and HeLa cells (ATCC: CRL-7923) as well as stable cell lines derived thereof were cultured as described before (Fussenegger et al., 1998, Nat. Biotechnol. 16,468-472) in the presence of appropriate antibiotics: G418 400 μg/ml; zeocin 100 μg/ml. Optimized CaPO4 protocols were used for high efficiency transient transfection of all cell lines (Fussenegger et al., 1998. Nat. Biotechnol. 16: 468-472). Transiently transfected cells were routinely analyzed after 48 h for CFP or SEAP expression using fluorescence microscopy and p-nitrophenolphosphate-based light absorbance timecourse, respectively, as described before (Fussenegger et al., 1998, Nat. Biotechnol. 16, 468-472; Berger et al., 1988, Gene 66, 1-10 b). For construction of stable CHO-ET1 and CHO-Triplet42 cell lines, CHO-Ki and CHO-TWIN1108 (Disclosed in PCT application no. 00/65080) were cotransfected with pWW35 and pZeoSV2 (invitrogen). CHO-ET11-SEAP was constructed by cotransfection of pWW38 and pSV2neo (Clontech) into CHO-ET11. The mixed populations were cloned using FACS-mediated single-cell-sorting (FACStar^Plus; Beckton Dickinson). For assessment of dose-response characteristics of PETR3-regulated gene expression, CHO-ET11-SEAP were cultured at cell densities of 50,000/ml for 48 h at various EM concentrations.
(§2) Other antibiotics were eluted from antibiotic test discs (Mast Diagnostica GmbH, Reinfeld, Germany, or bioMérieux, Geneva Switzerland) in cell culture medium at 37° C. for 12 h to reach a final concentration of 30 μg/ml. All macrolide antibiotics were used at a 2 μg/ml concentration unless indicated otherwise.
Two representative clones, CHO-ET11 and CHO-ET12, were chosen at random among ET1-expressing CHO cell clones stably transfected with a constitutive ET1 expression construct (pWW35).
Access to alternative effective antibiotics would expand the spectrum of regulating agents available for future use in human cell and gene therapy. Accordingly, several commercially available antibiotic sources were tested for their potential to regulate the ET1/PETR3 system as shown below in Table 3.
The effect of the different spacer length in promoters PETR2 and PETR7-PETR11 were examined by transfecting the corresponding plasmids (pWW37, pBP10-pBP14) into a CHO cell line stably transfected with the transactivator ET1 (MphR(A)-VP 16, see example 1).

The conditions of data set [2]: saliva, sputum, lung tissue, epithelial lining fluid, alveolar macrophages, neutrophils, tonsils, nasal mucosa, middle ear fluid; cited from earlier work.
Data set [3] concerns ET1 / erythromycin-responsive promoter PETR3. The data set can be described thus: SEAP assay in CHO-Triplet42 transfected with PETR3-SEAP (pWW38). Type of data set: cell-based. To be noted: antibiotic 2 μg/ml; for SEAP activity [U/L]: CHO-Triplet42 + PWW38 (PETR3), 48 h. As to the method:
as §1, §2
(§3) The regulation performance of the EM-based regulation system was compared directly with the widely used TET- and PIP responsive expression concepts. To this end, we have constructed a stable CHO-K1-derived cell line expressing ET1, PIT and tTA (CHO-Triplet42). […] CHO-Triplet42 was transfected with either isogenic (i) PETR3-(pWW38), (ii) a PPIR-(pristinamycin-responsive promoter, pMF172, Fussenegger et al., 2000. supra.), or (iii) a PhCMV*-1-(tetracycline-responsive promoter, pMF111, Fussenegger et al., 2000. supra) driven SEAP expression vector to assess the individual regulation performance of the three antibiotic-responsive gene regulation systems in CHO cells (Table 5).
(§4) To analyze the relative regulatory characteristics, we evaluated induction factors (IF; ratio of maximal expression level to antibiotic-repressed expression level).
(§5) These repressive effects are still in a range which is tolerable for use in potential medical applications.

The subject of data set [4] is PIT / pristinamycin-responsive promoter PPIR. The data set can be described thus: SEAP assay in CHO-Triplet42 transfected with PPIR-SEAP (pMF172). Type of data set: cell-based. To be noted: for SEAP activity [U/L]: CHO-Triplet42 + pMF172 (PPIR), antibiotic 2 μg/ml, 48 h. As to the method: as §1, §2, §3, §4, §5
The target of data set [5] is T1, tTA / tetracycline-responsive promoter PhCMV*-1 (Escherichia coli, UniProt P04483).
T1 construct: expressed in transfected cells; host or cells: CHO-Triplet42 (from CHO-TWIN1108)
Put plainly: SEAP assay in CHO-Triplet42 transfected with PhCMV*-1-SEAP (pMF111). Format: cell-based. To be noted: antibiotic 2 μg/ml. Here is the method: as §1, §2

In the case of `CC[C@H]1OC(=O)[C@H](C)[C@@H](O[C@H]2C[C@@](C)(OC)[C@@H](O)[C@H](C)O2)[C@H](C)[C@@H](O[C@@H]2O[C@H](C)C[C@H](N(C)C)[C@H]2O)[C@](C)(O)C[C@@H](C)CN(C)[C@H](C)[C@@H](O)[C@]1(C)O` [Azithromycin], in data set [1], the “SEAP production [%]” value stood at 57.6 ± 4.4%.
With `CO/N=C(\C(=O)N[C@@H]1C(=O)N2C(C(=O)O)=C(CSc3nc(=O)c(=O)[nH]n3C)CS[C@H]12)c1csc(N)n1` [Ceftriaxone], in data set [1], the “SEAP production [%]” value turned out to be 28.8 ± 1.8%.
In the case of `CC[C@H]1OC(=O)[C@H](C)[C@@H](O[C@H]2C[C@@](C)(OC)[C@@H](O)[C@H](C)O2)[C@H](C)[C@@H](O[C@@H]2O[C@H](C)C[C@H](N(C)C)[C@H]2O)[C@](C)(OC)C[C@@H](C)C(=O)[C@H](C)[C@@H](O)[C@]1(C)O` [Clarithromycin], the “Induction factor (ratio of SEAP activity without antibiotic to SEAP activity with antibiotic)” value in data set [1] (CHO-ET11 + pWW38, 2 μg/ml) stood at 23. In data set [1], the “SEAP production [%]” value amounted to 4.3 ± 0.3%. Further, in data set [2], the “diffusion into tissues and fluids” value was “extensive diffusion”.
Turning to `CC[C@H]1OC(=O)[C@H](C)[C@@H](O[C@H]2C[C@@](C)(OC)[C@@H](O)[C@H](C)O2)[C@H](C)[C@@H](O[C@@H]2O[C@H](C)C[C@H](N(C)C)[C@H]2O)[C@](C)(O)C[C@@H](C)/C(=N\OCOCCOC)[C@H](C)[C@@H](O)[C@]1(C)O` [Roxithromycin], the “SEAP production [%]” value in data set [1] is given as 18.1 ± 0.9%.
Regarding `CN(C)[C@@H]1C(O)=C(C(N)=O)C(=O)[C@@]2(O)C(O)=C3C(=O)c4c(O)cccc4[C@@](C)(O)[C@H]3C[C@@H]12` [Tet, tetracycline], the “SEAP activity [U/L]” value is on record as 55.0 ± 8.3 U/L in data set [3] and 4.6 ± 0.4 U/L in data set [4].
For `CC[C@H]1OC(=O)C[C@@H](O)[C@H](C)[C@@H](O[C@@H]2O[C@H](C)[C@@H](O[C@H]3C[C@@](C)(O)[C@@H](O)[C@H](C)O3)[C@H](N(C)C)[C@H]2O)[C@@H](CC=O)C[C@@H](C)C(=O)/C=C/C(C)=C/[C@@H]1CO[C@@H]1O[C@H](C)[C@@H](O)[C@@H](OC)[C@H]1OC` [Tylosin], the “SEAP production [%]” value in data set [1] is on record as 30.9 ± 3.2%.
For the compound pristinamycin I [PI], the “SEAP activity [U/L]” value was found to be 71.9 ± 7.0 U/L in data set [3]; 87.9 ± 7.0 U/L in data set [5] (CHO-Triplet42 + pMF111 (PhCMV*-1), 48 h); 2.2 ± 0.1 U/L in data set [4]. For the same compound, in data set [3] (CHO-Triplet42 + pWW38), the “Antibiotic crossregulation of PETR3” value was “no significant interference”. Further, in data set [5] (CHO-Triplet42 + pMF111), the “Antibiotic crossregulation of PhCMV*-1” value is recorded as “no significant interference”. The Induction factor result in data set [4] (Pip-system in CHO-Triplet42) was “three-fold”.

(Values after patent US7273723B2, “Antibiotic-based gene regulation system” (priority 2001, dated 2007).)
